Tests used:
Type in all cases: biochemical
PI3Kα (p110α/p85α)(h) = biological target: T1, PI3Kα (p110α/p85α)(h) (Homo sapiens, UniProt P42336); experiment: PI3K-HTRF in vitro enzyme assay, PI3Kα; details: enzyme 0.1 μg/ml
T1 construct: purchased Upstate (Millipore Co) #14-602
Description: (§1) The compounds of the present invention were tested for the activity of phosphatidylinositol 3-kinase delta (PI3K) by using a PI3K enzyme-homogeneous time resolved fluorescence (PI3K-HTRF) kit, which is available under Upstate™ kit (Millipore Co, Billerica, Mass., USA). This kit system measures indirectly the amount of PIP3 produced via PI3K by detecting competitive inhibition of fluorescence complex formation.
(§2) There were used three kinds of buffer solutions, i.e., reaction buffer, stop solution, and detection solution. The reaction buffer was prepared by diluting Reaction Buffer (provided in Update™ kit) with distilled water 4 times and adding DTT to a concentration of 5 mM. The stop solution was prepared by combining STOP A and B Solutions (provided in Update™ kit) in a ratio of 3:1. The detection solution was prepared by combining Detection Solution A, B and C (provided in Update™ kit) in a ratio of 1:1:18. A substrate solution and an ATP solution were prepared by diluting the 1 mM PIP2 (phosphatidyl inositol 4,5 bi-phosphate) stock solution (provided in Update™ kit) and 10 mM ATP (Sigma-aldrich Co., St. Louis, Mo., USA) stock solution with the reaction buffer to concentrations of 20 μM and 40 μM, respectively. An enzyme solution was prepared by diluting PI3Kδ (#14˜604; Upstate™ kit) with the substrate solution to the concentration of 0.2 μg/ml (final reaction concentration: 0.1 μg/ml).
(§3) The test groups were prepared by dissolving each compound in 100% DMSO at 40× the final concentration and then diluting 10-fold with the reaction buffer. 5 μl of each diluted test group solution was transferred to a 384 well low flange white flat bottom microplate (#3572, Corning Life Sciences, Lowell, Mass., USA). We performed centrifuge (1 minute, 1000 rpm) and shaking for 2 minutes after every solution-adding step in this experiment. Next, 10 μl of the enzyme solution was added to each well. A mixed solution of the substrate solution (10 μl) plus 5 μl of the 100% DMSO diluted solution without test compound (i.e., 10% DMSO solution) was used as a negative control. And also, a mixed solution of enzyme solution (10 μl) plus 5 μl of the 100% DMSO diluted solution without test compound (i.e., 10% DMSO solution) was used as a positive control. This plate was pre-incubated for 10 minutes in a 25° C. incubator. After the pre-incubation, the phosphorylation reaction was induced by adding 5 μl of the ATP solution and the plate was incubated for 30 minutes in a 25° C. incubator. This enzyme reaction was stopped by 5 μl of the stop solution and then 5 μl of the detection solution was added thereto. To obtain enough fluorescence responses, the plate was incubated for 2 hours in a 25° C. incubator protected from light.
(§4) The time-resolved fluorescence resonance energy transfer (TR-FRET) rate was measured (emission wavelength: 665 nm, 620 nm, excitation wavelength: 313 nm) by using a Flexstation3 Micro plate reader (Molecular Devices, USA). TR-FRET Rate was calculated based on the Equation 1 and using these TR-FRET Rates, % inhibition rate of each compound was calculated based on the Equation 2. The IC50 values, i.e., the concentration of a test compound that inhibits 50% of PI3Kδ activity in vitro, are generated by Softmax program (Molecular Devices, USA). TR-FRET Rate=(Signal at 665 nm emission wavelength/Signal at 620 nm emission wavelength)×10000 <Equation 1> % Inhibition Rate=[(TR-FRET Rate of the test group−TR-FRET Rate of the positive control group)/(TR-FRET Rate of the negative control group−TR-FRET Rate of the positive control group)]×100 <Equation 2>
(§5) The compounds of the present invention were assayed for the activities of PI3K subtypes, i.e., PI3Kα, PI3Kβ and PI3Kγ, using the same procedures as in Experimental Example 1. […]

PI3Kβ (p110β/p85α)(h) = biological target: T2, PI3Kβ (p110β/p85α)(h) (Homo sapiens, UniProt P42338); experiment: PI3K-HTRF in vitro enzyme assay, PI3Kβ; details: enzyme 0.4 μg/ml
T2 construct: purchased Upstate (Millipore Co) #14-603
Description: as §1, §2, §3, §4, §5

PI3Kδ (p110δ/p85α)(h) = biological target: T3, PI3Kδ (p110δ/p85α)(h) (Homo sapiens, UniProt O00329); experiment: PI3K-HTRF in vitro enzyme assay, PI3Kδ; details: enzyme 0.1 μg/ml
T3 construct: purchased Upstate (Millipore Co, Billerica, Mass., USA) #14˜604
Description: as §1, §2, §3, §4

PI3Kγ (p120γ)(h) = biological target: T4, PI3Kγ (p120γ)(h) (Homo sapiens, UniProt P48736); experiment: PI3K-HTRF in vitro enzyme assay, PI3Kγ; details: enzyme 0.4 μg/ml
T4 construct: purchased Upstate (Millipore Co) #14-558
Description: as §1, §2, §3, §4, §5

T4 sequence (P48736 whole entry): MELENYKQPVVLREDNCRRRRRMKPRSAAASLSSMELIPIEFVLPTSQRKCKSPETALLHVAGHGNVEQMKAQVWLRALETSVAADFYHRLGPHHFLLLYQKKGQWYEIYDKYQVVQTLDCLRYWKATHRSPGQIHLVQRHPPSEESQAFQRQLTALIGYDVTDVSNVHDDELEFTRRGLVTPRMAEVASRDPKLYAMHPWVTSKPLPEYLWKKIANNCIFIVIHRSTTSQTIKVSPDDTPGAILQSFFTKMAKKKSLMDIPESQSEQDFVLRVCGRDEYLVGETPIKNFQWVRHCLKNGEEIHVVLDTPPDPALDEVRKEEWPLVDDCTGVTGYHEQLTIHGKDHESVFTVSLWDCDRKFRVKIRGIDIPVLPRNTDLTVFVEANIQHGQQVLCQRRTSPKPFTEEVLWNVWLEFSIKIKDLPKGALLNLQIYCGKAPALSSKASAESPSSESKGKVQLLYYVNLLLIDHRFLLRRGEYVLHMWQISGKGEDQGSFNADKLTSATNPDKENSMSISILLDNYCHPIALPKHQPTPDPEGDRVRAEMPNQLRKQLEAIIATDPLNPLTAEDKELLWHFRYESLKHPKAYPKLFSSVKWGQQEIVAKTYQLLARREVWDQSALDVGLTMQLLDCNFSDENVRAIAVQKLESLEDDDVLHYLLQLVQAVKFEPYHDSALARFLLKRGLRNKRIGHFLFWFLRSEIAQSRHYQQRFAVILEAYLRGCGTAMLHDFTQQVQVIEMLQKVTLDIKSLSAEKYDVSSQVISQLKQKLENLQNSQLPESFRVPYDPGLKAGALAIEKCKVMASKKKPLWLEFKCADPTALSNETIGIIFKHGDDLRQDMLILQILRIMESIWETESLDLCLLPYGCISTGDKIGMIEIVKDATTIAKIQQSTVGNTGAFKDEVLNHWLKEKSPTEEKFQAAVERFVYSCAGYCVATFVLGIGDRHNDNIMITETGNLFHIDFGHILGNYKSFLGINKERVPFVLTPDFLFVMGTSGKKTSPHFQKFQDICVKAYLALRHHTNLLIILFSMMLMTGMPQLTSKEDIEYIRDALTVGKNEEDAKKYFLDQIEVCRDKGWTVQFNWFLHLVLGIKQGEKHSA
T1 sequence (P42336 whole entry): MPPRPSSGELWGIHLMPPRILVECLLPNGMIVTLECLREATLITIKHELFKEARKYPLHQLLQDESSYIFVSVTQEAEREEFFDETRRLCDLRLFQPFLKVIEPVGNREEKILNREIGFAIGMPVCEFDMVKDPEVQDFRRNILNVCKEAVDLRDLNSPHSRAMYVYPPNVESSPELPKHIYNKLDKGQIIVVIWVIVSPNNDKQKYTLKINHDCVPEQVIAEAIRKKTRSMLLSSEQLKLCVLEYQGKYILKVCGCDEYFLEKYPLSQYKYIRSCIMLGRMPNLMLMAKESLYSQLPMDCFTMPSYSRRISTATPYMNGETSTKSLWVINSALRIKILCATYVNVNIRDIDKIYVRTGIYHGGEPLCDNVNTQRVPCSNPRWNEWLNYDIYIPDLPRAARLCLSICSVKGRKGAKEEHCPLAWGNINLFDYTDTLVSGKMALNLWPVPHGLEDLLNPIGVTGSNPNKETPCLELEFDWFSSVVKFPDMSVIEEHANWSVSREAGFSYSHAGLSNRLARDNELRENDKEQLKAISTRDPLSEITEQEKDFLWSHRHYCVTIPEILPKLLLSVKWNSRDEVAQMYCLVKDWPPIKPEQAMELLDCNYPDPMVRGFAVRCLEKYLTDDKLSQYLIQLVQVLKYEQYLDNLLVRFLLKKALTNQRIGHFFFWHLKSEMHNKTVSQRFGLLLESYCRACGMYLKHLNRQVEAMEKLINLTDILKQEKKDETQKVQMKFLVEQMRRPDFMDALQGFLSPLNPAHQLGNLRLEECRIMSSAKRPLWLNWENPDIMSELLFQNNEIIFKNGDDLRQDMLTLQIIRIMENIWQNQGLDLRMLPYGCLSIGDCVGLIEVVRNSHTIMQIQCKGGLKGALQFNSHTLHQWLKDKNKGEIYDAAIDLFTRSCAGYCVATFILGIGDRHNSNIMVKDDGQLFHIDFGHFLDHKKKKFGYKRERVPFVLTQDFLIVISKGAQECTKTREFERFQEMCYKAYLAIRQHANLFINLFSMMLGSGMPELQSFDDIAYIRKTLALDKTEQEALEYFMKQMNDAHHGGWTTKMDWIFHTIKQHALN
T1 sequence (P27986 whole entry partner): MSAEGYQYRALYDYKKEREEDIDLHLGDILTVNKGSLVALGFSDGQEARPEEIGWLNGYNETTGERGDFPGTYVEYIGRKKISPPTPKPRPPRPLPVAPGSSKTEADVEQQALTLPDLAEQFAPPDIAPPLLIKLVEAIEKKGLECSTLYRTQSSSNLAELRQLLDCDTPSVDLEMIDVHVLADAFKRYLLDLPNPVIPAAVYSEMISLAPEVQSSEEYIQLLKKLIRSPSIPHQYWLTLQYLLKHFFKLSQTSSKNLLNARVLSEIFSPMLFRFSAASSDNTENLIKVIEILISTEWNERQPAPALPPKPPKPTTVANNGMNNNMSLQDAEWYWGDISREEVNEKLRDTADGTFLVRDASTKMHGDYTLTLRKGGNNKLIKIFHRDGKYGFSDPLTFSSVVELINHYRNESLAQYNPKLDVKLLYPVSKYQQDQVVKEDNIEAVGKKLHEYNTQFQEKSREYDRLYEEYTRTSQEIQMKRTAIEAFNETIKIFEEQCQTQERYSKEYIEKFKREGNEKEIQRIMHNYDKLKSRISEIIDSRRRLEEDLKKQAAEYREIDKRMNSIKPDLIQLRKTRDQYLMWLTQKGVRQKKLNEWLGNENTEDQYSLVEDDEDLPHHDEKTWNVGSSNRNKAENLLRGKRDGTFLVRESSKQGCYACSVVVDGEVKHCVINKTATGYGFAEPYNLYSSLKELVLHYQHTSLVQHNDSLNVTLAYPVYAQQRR
T3 sequence (O00329 whole entry): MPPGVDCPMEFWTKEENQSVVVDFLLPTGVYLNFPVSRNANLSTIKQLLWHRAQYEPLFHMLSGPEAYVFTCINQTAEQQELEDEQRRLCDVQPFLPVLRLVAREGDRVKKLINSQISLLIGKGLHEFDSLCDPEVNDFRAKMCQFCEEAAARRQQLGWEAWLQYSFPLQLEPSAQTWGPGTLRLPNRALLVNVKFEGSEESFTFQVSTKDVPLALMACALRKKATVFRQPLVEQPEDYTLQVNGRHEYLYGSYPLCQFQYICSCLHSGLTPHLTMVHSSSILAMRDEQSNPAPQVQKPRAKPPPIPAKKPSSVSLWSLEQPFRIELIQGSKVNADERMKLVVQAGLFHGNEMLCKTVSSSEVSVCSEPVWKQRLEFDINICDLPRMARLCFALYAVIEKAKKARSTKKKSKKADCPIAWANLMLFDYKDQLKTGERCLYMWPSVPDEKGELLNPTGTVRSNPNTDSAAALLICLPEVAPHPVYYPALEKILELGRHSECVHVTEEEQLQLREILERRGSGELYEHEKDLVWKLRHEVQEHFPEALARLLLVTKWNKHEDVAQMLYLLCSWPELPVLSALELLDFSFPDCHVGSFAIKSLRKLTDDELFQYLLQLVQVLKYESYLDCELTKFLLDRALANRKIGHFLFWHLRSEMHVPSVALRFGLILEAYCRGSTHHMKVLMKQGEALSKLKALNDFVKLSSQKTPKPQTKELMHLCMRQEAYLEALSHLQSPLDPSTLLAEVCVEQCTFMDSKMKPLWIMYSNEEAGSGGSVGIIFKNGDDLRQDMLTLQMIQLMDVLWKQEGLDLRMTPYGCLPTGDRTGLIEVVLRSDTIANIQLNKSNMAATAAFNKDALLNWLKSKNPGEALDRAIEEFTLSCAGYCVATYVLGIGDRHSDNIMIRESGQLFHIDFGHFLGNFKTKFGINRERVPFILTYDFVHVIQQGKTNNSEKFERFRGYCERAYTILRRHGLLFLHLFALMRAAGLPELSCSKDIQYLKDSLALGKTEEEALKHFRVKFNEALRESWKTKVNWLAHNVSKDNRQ
T3 sequence (P27986 whole entry partner): as the sequence (P27986 whole entry partner) above
T2 sequence (P42338 whole entry): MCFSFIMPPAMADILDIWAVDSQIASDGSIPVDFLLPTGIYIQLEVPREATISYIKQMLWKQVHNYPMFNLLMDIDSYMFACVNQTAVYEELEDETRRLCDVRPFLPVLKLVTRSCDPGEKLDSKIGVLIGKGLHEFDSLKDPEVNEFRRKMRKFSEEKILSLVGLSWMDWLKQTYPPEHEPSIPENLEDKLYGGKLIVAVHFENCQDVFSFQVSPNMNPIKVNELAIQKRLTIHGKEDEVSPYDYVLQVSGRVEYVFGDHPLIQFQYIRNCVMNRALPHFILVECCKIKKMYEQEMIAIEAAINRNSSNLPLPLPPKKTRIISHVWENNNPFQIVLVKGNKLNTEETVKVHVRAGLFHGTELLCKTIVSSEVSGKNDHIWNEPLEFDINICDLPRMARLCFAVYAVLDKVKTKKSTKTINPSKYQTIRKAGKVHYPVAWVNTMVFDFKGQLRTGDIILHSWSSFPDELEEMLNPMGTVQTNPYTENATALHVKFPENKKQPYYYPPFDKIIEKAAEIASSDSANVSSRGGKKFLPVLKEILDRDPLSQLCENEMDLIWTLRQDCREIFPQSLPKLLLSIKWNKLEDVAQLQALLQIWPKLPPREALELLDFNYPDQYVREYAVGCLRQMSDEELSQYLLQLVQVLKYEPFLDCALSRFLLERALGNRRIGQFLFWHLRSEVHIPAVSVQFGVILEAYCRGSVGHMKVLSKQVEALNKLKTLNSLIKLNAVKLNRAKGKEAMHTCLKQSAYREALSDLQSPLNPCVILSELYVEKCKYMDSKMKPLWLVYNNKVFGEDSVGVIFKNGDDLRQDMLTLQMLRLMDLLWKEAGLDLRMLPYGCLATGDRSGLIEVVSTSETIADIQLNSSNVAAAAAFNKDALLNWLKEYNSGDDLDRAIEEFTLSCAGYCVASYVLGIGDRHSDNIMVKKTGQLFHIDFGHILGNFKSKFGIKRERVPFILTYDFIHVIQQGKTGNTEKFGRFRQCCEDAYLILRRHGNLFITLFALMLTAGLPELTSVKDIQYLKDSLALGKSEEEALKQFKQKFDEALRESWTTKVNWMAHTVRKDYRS
T2 sequence (P27986 whole entry partner): as the sequence (P27986 whole entry partner) above

Row | IC50 (PI3Kα (p110α/p85α)(h)) | IC50 (PI3Kβ (p110β/p85α)(h)) | IC50 (PI3Kδ (p110δ/p85α)(h)) | IC50 (PI3Kγ (p120γ)(h)) | SMILES
1 | 2710 nM | 5790 nM | 19 nM | 771 nM | COc1ncc(-c2cccc3nc([C@H](C)Nc4ncnc5ccc(C#N)cc45)n(C4CC4)c(=O)c23)cn1 [Example 18, (S)-4-((1-(3-cyclopropyl-5-(2-methoxypyrimidin-5-yl)-4-oxo-3,4-dihydroquinazolin-2-yl)ethyl)amino)quinazoline-6-carbonitrile]
2 | 652 nM | 9310 nM | 3 nM | 442 nM | Nc1ncc(-c2cccc3nc([C@@H](Nc4ncnc5cccc(F)c45)C4CC4)n(-c4ccccc4)c(=O)c23)cn1 [Example 31, (S)-5-(2-aminopyrimidin-5-yl)-2-(cyclopropyl((5-fluoroquinazolin-4-yl)amino)methyl)-3-phenylquinazolin-4(3H)-one]
3 | 841 nM | – | 3 nM | 537 nM | N#Cc1ccc2ncnc(N[C@H](c3nc4cccc(-c5cncnc5)c4c(=O)n3-c3ccccc3)C3CC3)c2c1 [Example 14, (S)-4-((cyclopropyl(4-oxo-3-phenyl-5-(pyrimidin-5-yl)-3,4-dihydroquinazolin-2-yl)methyl)amino)quinazoline-6-carbonitrile]
4 | 638 nM | – | 20 nM | 747 nM | CC[C@H](Nc1ncnc2ccc(C#N)cc12)c1nc2cccc(-c3cnc(N(C)C)nc3)c2c(=O)n1-c1ccccc1 [Example 7, (S)-4-((1-(5-(2-(dimethylamino)pyrimidin-5-yl)-4-oxo-3-phenyl-3,4-dihydroquinazolin-2-yl)propyl)amino)quinazoline-6-carbonitrile]
5 | 8120 nM | – | 17 nM | 4280 nM | CC[C@H](Nc1ncnc2cccc(F)c12)c1nc2cccc(-c3cncnc3)c2c(=O)n1-c1ccccc1 [Example 24, (S)-2-(1-((5-fluoroquinazolin-4-yl)amino)propyl)-3-phenyl-5-(pyrimidin-5-yl)quinazolin-4(3H)-one]
6 | 2210 nM | – | 14 nM | 3630 nM | CC[C@H](Nc1ncnc2ccc(C#N)cc12)c1nc2cccc(-c3cncnc3)c2c(=O)n1-c1ccccc1 [Example 4, (S)-4-((1-(4-oxo-3-phenyl-5-(pyrimidin-5-yl)-3,4-dihydroquinazolin-2-yl)propyl)amino)quinazoline-6-carbonitrile]
7 | 1480 nM | – | 24 nM | 2890 nM | CC(C)[C@H](Nc1ncnc2ccc(C#N)cc12)c1nc2cccc(-c3cnc(N)nc3)c2c(=O)n1-c1ccccc1 [Example 13, (S)-4-((1-(5-(2-aminopyrimidin-5-yl)-4-oxo-3-phenyl-3,4-dihydroquinazolin-2-yl)-2-methylpropyl)amino)quinazoline-6-carbonitrile]
8 | 2010 nM | – | 13 nM | 7610 nM | CC(C)[C@H](Nc1ncnc2cccc(F)c12)c1nc2cccc(-c3cnc(N)nc3)c2c(=O)n1-c1ccccc1 [Example 29, (S)-5-(2-aminopyrimidin-5-yl)-2-(1-((5-fluoroquinazolin-4-yl)amino)-2-methylpropyl)-3-phenylquinazolin-4(3H)-one]
9 | 1630 nM | – | 1 nM | 654 nM | CC[C@H](Nc1ncnc2ccc(C#N)cc12)c1cc2cccc(-c3cnc(C)nc3)c2c(=O)n1-c1ccccc1 [Example 42, (S)-4-((1-(8-(2-methylpyrimidin-5-yl)-1-oxo-2-phenyl-1,2-dihydroisoquinolin-3-yl)propyl)amino)quinazoline-6-carbonitrile]
10 | 1770 nM | – | 22 nM | 262 nM | Cc1ncc(-c2cccc3nc([C@H](C)Nc4ncnc5ccc(C#N)cc45)n(-c4ccccc4)c(=O)c23)cn1 [Example 3, (S)-4-((1-(5-(2-methylpyrimidin-5-yl)-4-oxo-3-phenyl-3,4-dihydroquinazolin-2-yl)ethyl)amino)quinazoline-6-carbonitrile]
11 | 712 nM | – | 1 nM | 195 nM | CC[C@H](Nc1ncnc2ccc(C#N)cc12)c1cc2cccc(-c3cncnc3)c2c(=O)n1-c1ccccc1 [Example 39, (S)-4-((1-(1-oxo-2-phenyl-8-(pyrimidin-5-yl)-1,2-dihydroisoquinolin-3-yl)propyl)amino)quinazoline-6-carbonitrile]
12 | 1010 nM | – | 14 nM | 2150 nM | CC[C@H](Nc1ncnc2ccc(C#N)cc12)c1nc2cccc(-c3cnc(OC)nc3)c2c(=O)n1-c1ccccc1 [Example 5, (S)-4-((1-(5-(2-methoxypyrimidin-5-yl)-4-oxo-3-phenyl-3,4-dihydroquinazolin-2-yl)propyl)amino)quinazoline-6-carbonitrile]
13 | 3550 nM | – | 20 nM | 922 nM | C[C@H](Nc1ncnc2ccc(C#N)cc12)c1nc2cccc(-c3cncnc3)c2c(=O)n1-c1ccccc1 [Example 1, (S)-4-((1-(4-oxo-3-phenyl-5-(pyrimidin-5-yl)-3,4-dihydroquinazolin-2-yl)ethyl)amino)quinazoline-6-carbonitrile]
14 | 1510 nM | – | 15 nM | 1960 nM | CCOc1ncc(-c2cccc3nc([C@H](CC)Nc4ncnc5ccc(C#N)cc45)n(-c4ccccc4)c(=O)c23)cn1 [Example 6, (S)-4-((1-(5-(2-ethoxypyrimidin-5-yl)-4-oxo-3-phenyl-3,4-dihydroquinazolin-2-yl)propyl)amino)quinazoline-6-carbonitrile]
15 | 2850 nM | – | 18 nM | 1150 nM | CCC[C@H](Nc1ncnc2ccc(C#N)cc12)c1nc2cccc(-c3cnc(C)nc3)c2c(=O)n1-c1ccccc1 [Example 9, (S)-4-((1-(5-(2-methylpyrimidin-5-yl)-4-oxo-3-phenyl-3,4-dihydroquinazolin-2-yl)butyl)amino)quinazoline-6-carbonitrile]
16 | 751 nM | – | 17 nM | 364 nM | COc1ncc(-c2cccc3nc([C@@H](Nc4ncnc5ccc(C#N)cc45)C4CC4)n(-c4ccccc4)c(=O)c23)cn1 [Example 15, (S)-4-((cyclopropyl(5-(2-methoxypyrimidin-5-yl)-4-oxo-3-phenyl-3,4-dihydroquinazolin-2-yl)methyl)amino)quinazoline-6-carbonitrile]
17 | 787 nM | – | 18 nM | 1720 nM | CC[C@H](Nc1ncnc2ccc(C#N)cc12)c1nc2cccc(-c3cnc(SC)nc3)c2c(=O)n1-c1ccccc1 [Example 8, (S)-4-((1-(5-(2-(methylsulfanyl)pyrimidin-5-yl)-4-oxo-3-phenyl-3,4-dihydroquinazolin-2-yl)propyl)amino)quinazoline-6-carbonitrile]
18 | 4470 nM | – | 17 nM | 3420 nM | CC[C@H](Nc1ncnc2cccc(F)c12)c1nc2cccc(-c3cnc(F)nc3)c2c(=O)n1-c1ccccc1 [Example 26, (S)-5-(2-fluoropyrimidin-5-yl)-2-(1-((5-fluoroquinazolin-4-yl)amino)propyl)-3-phenylquinazolin-4(3H)-one]
